Reference: patent US11464780B2, “Pyrazolopyrimidine derivative and use thereof” (Simcere Pharmaceutical Co. Ltd., priority 2018, dated 2022)
Like-named read-outs stand apart in the source and are kept apart here. Blank lines part the entries; values can stand above or below the compound they belong to.

Legend:
[1] = test system: human lung cancer LU-01-0414 subcutaneous xenograft tumor; assay: In vivo efficacy, subcutaneous xenograft tumor of human lung cancer LU-01-0414; design: species or system BALB/c mouse; conditions: LU-01-0414 xenograft, 14th day, PO
Experimental: Experimental object: evaluation of the in vivo efficacy of test drugs such as WX002A on subcutaneous xenograft tumor of human lung cancer LU-01-0414 in BALB/c mouse model.
(§1) Drug preparation: The compounds were all prepared into clear solutions with 5% DMSO+10% solutol+85% water as solvent for administration in the PO (intragastric) group.
(§2) Tumor measurement: the tumor diameters were measured with a vernier caliper twice a week. The calculation formula of tumor volume is: V=0.5×a×b^2, wherein a and b represent the long diameter and short diameter of the tumor, respectively. The anti-tumor efficacy of the compounds was evaluated by TGI (%). TGI (%) reflects tumor growth inhibition rate.
Statistical analysis: the statistical analysis was based on the relative tumor volume and tumor weight at the end of the experiment using SPSS software. One-way ANOVA was used to analyze the comparison between multiple groups. […] P<0.05 was considered to indicate significant difference.

[2] = In vivo pharmacokinetic test in mice; design: species or system male CD-1 mice; conditions: for Cmax: read-out: Peak concentration Cmax; for AUC(0-t): read-out: Area under the curve AUC0-last
Procedure, shortened: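 Male CD-1 mice, 7-9 weeks, given a single IV (3 mg/kg) or intragastric dose in 5% DMSO/10% solutol/85% water. Plasma drug levels measured by LC/MS/MS at multiple time points to derive PK parameters.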

[3] = In vivo cassette pharmacokinetic test in mice; design: species or system male CD-1 mice; conditions: cassette, mice
Experimental: The dose of the compounds: […] PO dose of 3 mg/kg, and administration volume of 3 mL/kg.

[4] = target: T1, Ba/F3 SLC34A2-ROS1-WT stably transfected cell line (Homo sapiens, UniProt P08922); assay: Cell proliferation inhibition (CellTiter-Glo); type: cell-based; conditions: 72 hours, read-out: The half maximal inhibitory concentration IC50 against cells, Ba/F3 SLC34A2-ROS1-WT
T1 construct: fused on or other part: O95436 (Sodium-dependent phosphate transport protein 2B)

[5] = test system: human colon cancer cell line KM12 subcutaneous xenograft tumor; assay: In vivo efficacy, subcutaneous xenograft tumor of human colon cancer KM12; design: species or system BALB/c mouse; conditions: PO
Experimental: Experimental object: evaluation of the in vivo efficacy of test drugs such as WX002A on subcutaneous xenograft tumor of human colon cancer cell line KM12 cell in BALB/c mouse model.
as §1
as §2, with “is” for “was”
Statistical analysis: The statistical analysis was based on the relative tumor volume and tumor weight at the end of the experiment using SPSS software. One-way ANOVA was used to analyze the comparison between multiple groups. […] P<0.05 was considered to indicate significant difference.

[6] = male, CD-1, mouse, plasma, PO dose of 10 mL/kg

T1 sequence (P08922 whole entry, stated change not applied, the tested form may be a part): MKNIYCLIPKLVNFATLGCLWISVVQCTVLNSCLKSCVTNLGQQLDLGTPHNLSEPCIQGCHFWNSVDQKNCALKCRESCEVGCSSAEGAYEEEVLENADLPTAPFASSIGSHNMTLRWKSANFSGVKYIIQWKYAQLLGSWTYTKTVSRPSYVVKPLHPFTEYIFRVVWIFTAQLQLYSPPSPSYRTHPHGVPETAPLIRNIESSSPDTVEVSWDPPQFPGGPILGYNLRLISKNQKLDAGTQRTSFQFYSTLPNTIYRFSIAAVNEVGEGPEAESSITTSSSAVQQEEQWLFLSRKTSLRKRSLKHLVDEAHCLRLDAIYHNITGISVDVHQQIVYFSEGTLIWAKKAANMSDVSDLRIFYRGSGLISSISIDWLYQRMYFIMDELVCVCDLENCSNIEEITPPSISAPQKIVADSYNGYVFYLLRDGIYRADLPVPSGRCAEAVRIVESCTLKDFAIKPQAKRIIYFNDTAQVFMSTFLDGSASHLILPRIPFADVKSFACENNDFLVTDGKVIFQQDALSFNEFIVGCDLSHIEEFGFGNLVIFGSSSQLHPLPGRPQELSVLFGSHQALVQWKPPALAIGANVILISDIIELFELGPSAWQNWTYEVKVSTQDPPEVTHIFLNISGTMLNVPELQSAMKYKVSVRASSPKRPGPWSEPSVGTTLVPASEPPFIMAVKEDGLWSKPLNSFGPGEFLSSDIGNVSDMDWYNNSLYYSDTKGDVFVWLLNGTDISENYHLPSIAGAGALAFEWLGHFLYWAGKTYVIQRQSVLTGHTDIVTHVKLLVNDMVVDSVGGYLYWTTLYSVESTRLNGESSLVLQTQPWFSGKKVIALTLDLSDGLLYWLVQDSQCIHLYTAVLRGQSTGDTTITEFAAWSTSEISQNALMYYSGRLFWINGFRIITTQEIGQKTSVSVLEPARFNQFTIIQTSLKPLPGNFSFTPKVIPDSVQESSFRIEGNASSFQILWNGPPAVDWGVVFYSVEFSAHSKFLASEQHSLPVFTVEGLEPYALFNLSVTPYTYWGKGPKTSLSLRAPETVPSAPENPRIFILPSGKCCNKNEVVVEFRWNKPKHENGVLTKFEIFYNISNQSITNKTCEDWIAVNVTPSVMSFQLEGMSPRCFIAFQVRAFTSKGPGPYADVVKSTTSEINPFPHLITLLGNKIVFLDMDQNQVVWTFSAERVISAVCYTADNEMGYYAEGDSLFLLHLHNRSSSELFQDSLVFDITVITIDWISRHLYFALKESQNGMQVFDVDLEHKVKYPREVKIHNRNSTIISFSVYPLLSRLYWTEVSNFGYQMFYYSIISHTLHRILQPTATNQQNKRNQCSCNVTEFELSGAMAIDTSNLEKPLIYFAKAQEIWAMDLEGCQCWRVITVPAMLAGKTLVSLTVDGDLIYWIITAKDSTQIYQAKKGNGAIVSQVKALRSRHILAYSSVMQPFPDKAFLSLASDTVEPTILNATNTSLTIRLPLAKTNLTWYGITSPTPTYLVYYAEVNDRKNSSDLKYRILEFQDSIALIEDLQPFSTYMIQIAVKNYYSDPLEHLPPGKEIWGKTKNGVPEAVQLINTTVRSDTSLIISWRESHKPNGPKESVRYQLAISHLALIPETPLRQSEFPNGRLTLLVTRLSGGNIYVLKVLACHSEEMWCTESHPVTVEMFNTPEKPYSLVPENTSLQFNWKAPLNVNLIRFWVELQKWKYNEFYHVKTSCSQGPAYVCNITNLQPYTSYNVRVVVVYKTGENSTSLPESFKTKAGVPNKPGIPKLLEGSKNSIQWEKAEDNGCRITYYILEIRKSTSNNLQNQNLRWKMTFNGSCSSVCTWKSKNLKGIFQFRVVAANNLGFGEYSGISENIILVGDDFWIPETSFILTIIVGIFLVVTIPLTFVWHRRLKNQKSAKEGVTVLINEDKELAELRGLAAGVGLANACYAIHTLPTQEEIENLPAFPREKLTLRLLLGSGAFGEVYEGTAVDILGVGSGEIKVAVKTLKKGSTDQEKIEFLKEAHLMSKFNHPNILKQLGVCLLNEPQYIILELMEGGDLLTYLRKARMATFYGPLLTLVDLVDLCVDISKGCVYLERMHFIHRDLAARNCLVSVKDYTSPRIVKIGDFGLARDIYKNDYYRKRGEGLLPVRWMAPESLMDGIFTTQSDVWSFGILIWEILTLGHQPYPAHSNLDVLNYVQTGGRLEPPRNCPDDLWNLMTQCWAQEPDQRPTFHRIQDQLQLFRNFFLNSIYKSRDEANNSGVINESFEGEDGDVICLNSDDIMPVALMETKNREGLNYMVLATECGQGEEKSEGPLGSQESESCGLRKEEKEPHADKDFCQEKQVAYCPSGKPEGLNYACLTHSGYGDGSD

Apparent clearance Cl ([2]; IV dose of 3 mg/kg): 7.2 mL/min/kg
Apparent volume of distribution Vd ([2]; IV dose of 3 mg/kg): 0.49 L/kg
Area under the curve AUC0-last ([2]; IV dose of 3 mg/kg): 17.502 µM·h
Half life T1/2 ([2]; IV dose of 3 mg/kg): 45 min
Area under the curve AUC0-last ([2]; PO dose of 10 mL/kg): 29.787 µM·h
Time of peak concentration Tmax ([2]; PO dose of 10 mL/kg): 30 min
Bioavailability F % ([2]; PO dose of 10 mL/kg vs IV 3 mg/kg): 51%
Cmax ([2]; PO dose of 10 mL/kg): 9.14 µM
Apparent clearance Cl ([3]; IV @ 1 mpk): 6.3 mL/min/kg
Apparent volume of distribution Vd ([3]; IV @ 1 mpk): 0.57 L/kg
Area under curve AUC0-inf ([3]; IV @ 1 mpk): 6.689 µM·h
Half life T1/2 ([3]; IV @ 1 mpk): 52.8 min
C0 ([3]; IV @ 1 mpk, plasma, read-out: Initial concentration C0): 3.71 µM
Bioavailability F % ([3]; PO @ 3 mpk vs IV @ 1 mpk): 76%
Area under curve AUC0-inf ([3]; PO @ 3 mpk): 19.769 µM·h
Time of peak concentration Tmax ([3]; PO @ 3 mpk): 15 min
drug concentration in cerebrospinal fluid at 0.5 hour CSF@0.5 h ([3]; PO @ 3 mpk, CSF, 0.5 h): 63 nmol/kg
drug concentration in cerebrospinal fluid at 2 hour CSF@2 h ([3]; PO @ 3 mpk, CSF, 2 h): 21 nmol/kg
drug concentration in brain at 0.5 h Brain@0.5 h ([3]; PO @ 3 mpk, brain, 0.5 h): 663 nmol/kg
drug concentration in brain at 2 h Brain@2 h ([3]; PO @ 3 mpk, brain, 2 h): 343 nmol/kg
Cmax ([3]; PO @ 3 mpk, read-out: Peak concentration Cmax): 4.74 µM
GI50 [4]: 2.53 nM
Structure (SMILES): O=C1NC2(CC2)COc2ncc(F)cc2[C@H]2CCON2c2ccn3ncc1c3n2 [WX002A]
T/C ([1]; 3 mg/kg BID): 9.57%
TGI ([1]; 3 mg/kg BID): 118.02%
T/C ([1]; 15 mg/kg BID): 3.07%
TGI ([1]; 15 mg/kg BID): 126.88%
T/C ([1]; 30 mg/kg BID): 1.87%
TGI ([1]; 30 mg/kg BID): 128.36%
T/C ([5]; dose of 3 mg/kg): 33.18%
TGI ([5]; dose of 3 mg/kg): 71.23%
T/C ([5]; dose of 15 mg/kg): 15.63%
TGI ([5]; dose of 15 mg/kg): 88.61%

Apparent clearance Cl ([2]; IV dose of 3 mg/kg): 6.7 mL/min/kg
Vd ([2]; male, CD-1, mouse, plasma, IV dose of 3 mg/kg, read-out: Apparent volume of distribution Vd): 0.62 L/kg
AUC(0-t) ([2]; male, CD-1, mouse, plasma, IV dose of 3 mg/kg): 18.2 µM·h
half-life ([2]; male, CD-1, mouse, plasma, IV dose of 3 mg/kg, read-out: Half life T1/2 (converted)): 68.4 min
bioavailability ([2]; male, CD-1, mouse, plasma, PO dose of 10 mL/kg vs IV 3 mg/kg, read-out: Bioavailability F %): 65%
AUC(0-t) [2, 6]: 39.6 µM·h
Cmax [2, 6]: 12.2 µM
Tmax ([2]; male, CD-1, mouse, plasma, PO dose of 10 mL/kg, read-out: Time of peak concentration Tmax): 15 min
GI50 [4]: 5.45 nM
Structure (SMILES): O=C1N[C@@H]2COC[C@@H]2Oc2ncc(F)cc2[C@H]2CCON2c2ccn3ncc1c3n2 [WX008A]
